Experiments:
[1] = Reduction/release of shuttle-bound Cu; format: physicochemical; settings: 5 mM GSH, HEPES 100 mM pH 7.4
microglial cells in OHSC = experiment: Microglia proliferation and activation in OHSC; format: cell-based, CD1 mice; settings: 10 µM Cu(II)=shuttle, 20 µM Aβ1-40/42, 48h, Iba1 staining, n=3
Cu(II)Aβ1-16 = Cu(II)Aβ1-16 (Homo sapiens, UniProt P05067); experiment: Retrieval of Cu; format: binding; settings: 25°C; for time to complete retrieval of Cu(II) from Aβ1-16: HEPES buffer / 10% DMEM, shuttle 5 µM, Aβ1-16 10 µM, Cu(II) 5 µM; for Kinetics of Cu(II) transfer from Aß1-16 to shuttle, DMEM 10%: shuttle=Cu(II)=5 µM, Aß1-16=10 µM, 10% DMEM, NBD emission 545 nm, n=3
Selective Cu = format: binding; settings: for Average half-time of Cu(II) withdrawal, Cu(II), D/F / Average half-time of Cu(II) withdrawal, Cu(II), DMEM 10%: Cu(II) alone, Cu(II)=shuttle=5 µM, 25°C, NBD emission at 545 nm, n=3; for Average half-time of Cu(II) withdrawal, Cu(II), D/F: D/F 100%; for Cu(II) withdrawn from D/F media over the measurement duration: D/F media spiked with 5 µM Cu(II), shuttle 5 µM, NBD emission followed for 5h
PC12 cells [2] = experiment: Rescue of PC12 cells from Cu; format: cell-based; settings: 5 µM shuttle, 10 µM Cu(II)Aβ1-16 0.5:1, AscH-, 10% DMEM, 24h, MTT, n=3
PC12 cells [3] = experiment: Toxicity of shuttles on PC12 cells; format: cell-based; settings: 5 x 10^4 PC12 cells, 24h, 100% DMEM media

## H2N-Dap-His-His-αR5W4^NBD [DapHH-αR5W4^NBD]
[1]
  half-time of reduction of shuttle-bound Cu(II) by GSH (in words): only a few minutes
Microglial cells in OHSC
  effect on Cu(II)(Aβ1-40/42)-induced microglial cell proliferation in OHSC: reduced microglial cell proliferation
Cu(II)Aβ1-16
  time to complete retrieval of Cu(II) from Aβ1-16: less than two minutes
  Kinetics of Cu(II) transfer from Aß1-16 to shuttle, DMEM 10%: 47.9 ± 9.2 s
Selective Cu
  Average half-time of Cu(II) withdrawal, Cu(II), D/F: 4.3 ± 0.6 min
  Average half-time of Cu(II) withdrawal, Cu(II), DMEM 10%: < 1 min
  Cu(II) withdrawn from D/F media over the measurement duration: > 80%
PC12 cells [2]
  rescue of Cu(II)Aβ1-16-induced toxicity in PC12 cells: reversed

## CNC(=S)NN=CC=NNC(=S)NC [GTSM, glyoxal-bis(4-methylthiosemicarbazonato)]
PC12 cells [3]
  toxicity to PC12 cells (in words): toxic at nanomolar concentration

## CN=C([S-])N/N=C/C=N/NC([S-])=NC.[Cu+2] [Cu(II)GTSM]
PC12 cells [3]
  toxicity to PC12 cells (in words): toxic to PC12 cells

## H2N-His-Dap-His-αR5W4^NBD [HDapH-αR5W4^NBD]
[1]
  half-time of reduction of shuttle-bound Cu(II) by GSH (in words): only a few minutes
Microglial cells in OHSC
  effect on Cu(II)(Aβ1-40/42)-induced microglial cell proliferation in OHSC: reduced microglial cell proliferation
Cu(II)Aβ1-16
  time to complete retrieval of Cu(II) from Aβ1-16: less than two minutes
  Kinetics of Cu(II) transfer from Aß1-16 to shuttle, DMEM 10%: 14.5 ± 3.8 s
Selective Cu
  Average half-time of Cu(II) withdrawal, Cu(II), D/F: < 1 min
  Average half-time of Cu(II) withdrawal, Cu(II), DMEM 10%: < 1 min
  Cu(II) withdrawn from D/F media over the measurement duration: completely withdrew
PC12 cells [2]
  rescue of Cu(II)Aβ1-16-induced toxicity in PC12 cells: reversed
